# In patent publication US12467038B2, “Methods of culturing human pluripotent cells” (Hadasit Medical Research Services and Development Ltd., priority 2019, dated 2025):
# Tests used:
# Type in all cases: cell-based, human
# [1] = system: LN-hPSCs; experiment: FACS analysis of pluripotency cell-surface markers; conditions: HES-1 cells cultured on LN111
# Protocol: Signaling pathways analysis—hPSCs were cultured on LN111 for 2 days in complete medium, and then for additional 3-5 days in a medium+/−FGF2 in the presence of the following small molecules: PD032590 1 μM (Peprotech), LY294002 10 μM, SB431542 10 μM, CHIR99021 3 μM (all from Cayman Chemical, Michigan, USA), XAV939 2.5 μM (Peprotech), BMP4 50 ng/ml (Biogems-Peprotech). FACS analysis—FACS analyses were performed using the following primary antibodies: mouse IgM anti-TRA-1-60 (1:100; mab4360, R&D), and mouse IgM anti-TRA-1-81 (1:100; mab4381, R&D), and Rat IgM anti-SSEA-3. Staining with respective isotype control antibodies (all from eBiosciences) served as controls. Detection of primary antibodies was performed using the following secondary antibodies: FITC-conjugated Polyclonal Goat Anti-Mouse Immunoglobulins (1:100; Dako, Glostrup, Denmark), APC-conjugated Goat anti-Mouse IgM/G (1:200; Cat. No. 1020-11, SouthernBiotech, Birmingham, Ala., USA), and APC-conjugated anti-Rat (1:200; eBioscience). FACS analysis was performed on a FACScalibur system (Becton-Dickinson, San Jose, Calif.) using the Cellquest software. A detailed FACS procedure is described elsewhere. FACS analysis—FACS analyses for pluripotency marker expression were performed using mouse anti-TRA-1-60 (1:100; mab4360, R&D), and mouse anti-TRA-1-81 (1:100; mab4381, R&D). […]
# [2] = system: FGF5-GFP hPSC reporter clones (HES-1); experiment: FACS analysis of FGF5-GFP expression in hPS-FGF5 reporter clones
# Protocol: (§1) hPSC culture—hPSC culture—hPSC lines HES-1, HES-2 (10), HADC100, HADC102 (36) and H7 (9) were cultured on human foreskin feeders in serum free medium as described (30, 87). hPSC culturing in suspension was performed as reported (31) with minor modifications of the culture medium that was composed of Neurobasal medium, 14% KO-SR, L-glutamine 2 mM, 50 units/ml penicillin, 50 μg/ml streptomycin, 1% nonessential amino acids (all from Invitrogen, Carlsbad, Calif., USA). The medium was supplemented with FGF2 20 ng/ml, and activin A 25 ng/ml (both from Peprotech, Rocky Hill, N.J., USA), and laminin 0.5 μg/ml (Sigma-Aldrich, St. Louis, Mo., USA). For hPSC culturing on mouse LN111, 3-D Culture Matrix Laminin I (CULTREX, TREVIGEN, #3446-005-01, Gaithersburg, Md., USA) was diluted to a concentration of 1 mg/ml. Tissue culture dishes were coated with LN111, incubated overnight at 37° C. to promote matrix gelling, and washed with PBS. hPSCs were cultured on LN111 in a chemically defined medium composed of DMEM/F12, B27 supplement (1:50), N2 supplement (1:100) 2 mM L-glutamine, 50 units/ml penicillin, 50 μg/ml streptomycin (all from Invitrogen), and supplemented with 20 ng/ml bFGF (Peprotech). The cells were cultured in 5% CO2, 5% O2 incubator They were passaged every 7 days as small clusters by treatment with 1 mg/ml collagenase type IV (Invitrogen), and plated in a medium containing 5 μM ROCK inhibitor. hPSC culture under naïve conditions was performed using the 5iLFA protocol (20).
# Generation of FGF5 reporter cell lines—a 3 kb fragment of human FGF5 promoter (GeneBank accession number NT_016354) was amplified from HES-1 genomic DNA using Expand High Fidelity PCR System (Roche Applied Science, Penzberg, Germany) with primers CG ? TTGCTTTCCTGGCTGGGAG (SEQ ID NO: 1) (EcoRI) and CA ? AGCCTCGGGGAAGAGAAGG (SEQ ID NO: 2) (ApaI). […] Single colonies were picked, replated, and analyzed for the integrity of the integrated reporter vector. […]
# [3] = system: hPSCs; experiment: Extended propagation and karyotype analysis
# Protocol: as §1
# Alkaline phosphatase activity detection and karyotyping—Detection of alkaline phosphatase activity was performed on hPSC colonies using the Alkaline Phosphatase Staining Kit II (Stemgent, Cambridge, Mass., USA) according to the manufacturer's instructions. Karyotype analysis, was performed on 3-4 day hPSC colonies.
substance,measurement,setting,value
"LN111: mouse LN111, 3-D Culture Matrix Laminin I (CULTREX, TREVIGEN), coating of culture dishes",cells expressing TRA-1-60 and TRA-1-81,[1],over 90%
same,percentage of FGF5-GFP expressing cells,[2]; reporter clone #1 cultured on LN111,86%±2
same,percentage of FGF5-GFP expressing cells,[2]; reporter clone #2 cultured on LN111,90%±1
same,percentage of FGF5-GFP expressing cells,[2]; reporter clone #3 cultured on LN111,79%±3
same,extended undifferentiated propagation,[3]; HADC100,6 passages
same,extended undifferentiated propagation,[3]; HADC102,8 passages
same,passages propagated while maintaining a normal karyotype,[3]; HES-1 cells,at least 10 passages
